Experimental data: ChEMBL document CHEMBL6120950, “Deep-Learning-Driven Discovery of SN3-1, a Potent NLRP3 Inhibitor with Therapeutic Potential for Inflammatory Diseases” (J Med Chem, 2024)
Activity calls are given as the source filed them. The calls are words filed in the database; no cut-off is given here.

How the values were obtained:
[1] = Glutathione reactivity in PBS buffer; assay type: physicochemical
[2] = system: HEK-293T; experiment: Cytotoxicity against human HEK293T cells assessed as effect on cell viability at 50 uM incubated for 24 hrs by CCK-8 assay; assay type: toxicity, cell-based
[3] = molecular target: NACHT, LRR and PYD domains-containing protein 3 (Homo sapiens, UniProt Q96P20); experiment: Inhibition of NLRP3 inflammasome pathway in human THP-1 cells assessed as LPS-stimulated IL-1beta release pretreated with LPS for 3 hrs followed by compound addition for 30 mins prior to MSU addition and measured after 30 mins by ELISA; assay type: cell-based
[4] = Microsomal stability in human liver microsome assessed half life; assay type: ADME; conditions: liver microsomes
[5] = system: Mus musculus; experiment: Antialzheimer activity against scopolamine-induced cognitive impairment in C57BL/6 mouse assessed as increase in number of platform crossing at 30 mg/kg, po measured upto 14 days by morris water maze test; assay type: functional, organism-based; conditions: time <= 14.0 day
[6] = Chronic toxicity in mouse assessed as reduction in body weight at 300 mg/kg, po administered every day for 12 days; assay type: organism-based; conditions: in vivo, 288 h, time 12 day
[7] = Acute toxicity in mouse assessed as mortality at 2000 mg/kg, po measured on day 1; assay type: organism-based; conditions: in vivo, 24 h, time 1 day
[8] = Volume of distribution at steady state in ICR mouse at 1 mg/kg, iv measured upto 24 hrs by LC-MS/MS analysis; assay type: ADME, organism-based; conditions: in vivo, read-out: Vdss
[9] = MRT (0 to t) in ICR mouse at 1 mg/kg, iv measured upto 24 hrs by LC-MS/MS analysis; assay type: ADME, organism-based; conditions: in vivo
[10] = Chronic toxicity in ICR mouse assessed as change in uric acid level at 300 mg/kg, po administered every day for 12 days; assay type: organism-based; conditions: in vivo, 288 h, time 12 day
[11] = Chronic toxicity in ICR mouse assessed as change in creatinine level at 300 mg/kg, po administered every day for 12 days; assay type: organism-based; conditions: in vivo, 288 h, time 12 day
[12] = Half life in ICR mouse at 1 mg/kg, iv measured upto 24 hrs by LC-MS/MS analysis; assay type: ADME, organism-based; conditions: in vivo
[13] = Oral bioavailability in ICR mouse at 10 mg/kg measured upto 24 hrs by LC-MS/MS analysis; assay type: ADME, organism-based; conditions: in vivo
[14] = Chronic toxicity in ICR mouse assessed as change in AST level at 300 mg/kg, po administered every day for 12 days; assay type: organism-based; conditions: in vivo, 288 h, time 12 day
[15] = Toxicity in C57BL/6 mouse assessed as total distance travelled at 30 mg/kg, po measured up to 7 days by open field test; assay type: organism-based; conditions: in vivo, 168 h, time < 7 day
[16] = AUC (0 to t) in ICR mouse at 1 mg/kg, iv measured upto 24 hrs by LC-MS/MS analysis; assay type: ADME, organism-based; conditions: in vivo
[17] = Cmax in ICR mouse at 10 mg/kg, po measured upto 24 hrs by LC-MS/MS analysis; assay type: ADME, organism-based; conditions: in vivo
[18] = MRT (0 to t) in ICR mouse at 10 mg/kg, po measured upto 24 hrs by LC-MS/MS analysis; assay type: ADME, organism-based; conditions: in vivo
[19] = Tmax in ICR mouse at 10 mg/kg, po measured upto 24 hrs by LC-MS/MS analysis; assay type: ADME, organism-based; conditions: in vivo
[20] = Tmax in ICR mouse at 1 mg/kg, iv measured upto 24 hrs by LC-MS/MS analysis; assay type: ADME, organism-based; conditions: in vivo
[21] = Chronic toxicity in ICR mouse assessed as change in ALT level at 300 mg/kg, po administered every day for 12 days; assay type: organism-based; conditions: in vivo, 288 h, time 12 day
[22] = Clearance in ICR mouse at 1 mg/kg, iv measured upto 24 hrs by LC-MS/MS analysis; assay type: ADME, organism-based; conditions: in vivo
[23] = system: BMDM; experiment: Induction ROS production in human BMDM cells by MitoSOX probe based analysis; assay type: functional, cell-based
[24] = Acute toxicity in C57BL/6J mouse assessed as mortality at 2000 mg/kg, po measured for 1 week; assay type: organism-based; conditions: in vivo, 168 h, time 1 weeks
[25] = system: Mus musculus; experiment: Anti-inflammatory activity in MSU-induced acute gouty arthritis ICR mouse model assessed as reduction in ankle swelling at 30 mg/kg, po administered for 7 days; assay type: functional, organism-based; conditions: time 7.0 day
[26] = Half life in ICR mouse at 10 mg/kg, po measured upto 24 hrs by LC-MS/MS analysis; assay type: ADME, organism-based; conditions: in vivo
[27] = Acute toxicity in po dosed C57BL/6J mouse assessed as lethal dose at measured for 1 week; assay type: organism-based; conditions: in vivo, time 1 weeks
[28] = Chronic toxicity in ICR mouse assessed as change in nitrogen level at 300 mg/kg, po administered every day for 12 days; assay type: organism-based; conditions: in vivo, 288 h, time 12 day
[29] = Cmax in ICR mouse at 1 mg/kg, iv measured upto 24 hrs by LC-MS/MS analysis; assay type: ADME, organism-based; conditions: in vivo
[30] = AUC (0 to t) in ICR mouse at 10 mg/kg, po measured upto 24 hrs by LC-MS/MS analysis; assay type: ADME, organism-based; conditions: in vivo

NACHT, LRR and PYD domains-containing protein 3, sequence (Q96P20 whole entry, the tested form may be a part): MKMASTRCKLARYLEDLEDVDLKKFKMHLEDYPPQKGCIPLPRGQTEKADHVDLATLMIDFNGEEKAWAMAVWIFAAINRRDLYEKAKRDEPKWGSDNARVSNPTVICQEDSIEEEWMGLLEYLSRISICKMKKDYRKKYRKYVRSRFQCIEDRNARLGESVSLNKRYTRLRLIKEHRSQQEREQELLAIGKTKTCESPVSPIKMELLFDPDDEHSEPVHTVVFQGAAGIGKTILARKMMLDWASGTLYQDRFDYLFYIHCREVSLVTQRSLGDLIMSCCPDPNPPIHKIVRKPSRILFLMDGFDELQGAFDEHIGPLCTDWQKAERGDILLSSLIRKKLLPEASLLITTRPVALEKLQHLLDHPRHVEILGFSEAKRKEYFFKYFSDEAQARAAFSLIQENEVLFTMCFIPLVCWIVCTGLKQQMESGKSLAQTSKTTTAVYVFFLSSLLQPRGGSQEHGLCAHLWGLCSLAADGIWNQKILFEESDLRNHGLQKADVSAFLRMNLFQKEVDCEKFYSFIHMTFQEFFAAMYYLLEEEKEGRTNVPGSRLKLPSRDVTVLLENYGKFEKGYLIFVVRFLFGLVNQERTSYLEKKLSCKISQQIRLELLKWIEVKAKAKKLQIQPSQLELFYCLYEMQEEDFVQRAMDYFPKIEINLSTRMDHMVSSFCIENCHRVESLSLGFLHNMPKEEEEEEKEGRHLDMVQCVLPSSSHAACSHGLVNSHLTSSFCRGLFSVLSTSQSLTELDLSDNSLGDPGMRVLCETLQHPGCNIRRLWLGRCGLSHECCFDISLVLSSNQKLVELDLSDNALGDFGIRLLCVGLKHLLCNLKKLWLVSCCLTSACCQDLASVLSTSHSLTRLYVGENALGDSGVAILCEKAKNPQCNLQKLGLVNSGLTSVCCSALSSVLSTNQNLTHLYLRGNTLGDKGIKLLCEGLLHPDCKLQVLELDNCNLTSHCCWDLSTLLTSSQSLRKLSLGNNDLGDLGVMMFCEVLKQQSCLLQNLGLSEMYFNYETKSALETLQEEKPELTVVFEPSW

CC(C)(O)c1coc(S(=O)(=O)NC(=O)Nc2c(-c3ccc4ccccc4c3)ccc3c2CCC3)c1
Drug metabolism [1]: metabolite_detected | Activity [2]: Non-toxic

CC(C)(O)c1coc(S(=O)(=O)NC(=O)NC2CCCc3ccccc32)c1 (stereo not given)
IC50 [3]: > 1000 nM

CC(C)(O)c1csc(S(=O)(=O)NC(=O)Nc2c(-c3cccc(Cl)c3Cl)ccc3c2CCC3)c1
half-life [4]: 1.57 h | Activity [5]: Active | Activity [6]: Non-toxic | Activity [7]: Toxic | Vd [8]: 0.638 L/kg | MRT last at 24 h [9]: 1.75 h | Activity [10]: Non-toxic | Activity [11]: Non-toxic | half-life [12]: 2.57 h | bioavailability [13]: 36.8% | Activity [14]: Non-toxic | Activity [15]: Non-toxic | AUC(0-t) at 24 h [16]: 2610 ng·h/mL | Cmax [17]: 7120 ng/mL | MRT last at 24 h [18]: 1.73 h | Tmax [19]: 0.5 h | Tmax [20]: 4.98 min | Activity [21]: Non-toxic | clearance [22]: 6.1 mL/min/kg | Activity [23]: Active | Activity [24]: Non-toxic | Activity [25]: Active | half-life [26]: 1.86 h | LD50 at 168 h [27]: 2000 mg/kg | Activity [28]: Non-toxic | Cmax [29]: 3920 ng/mL | AUC(0-t) at 24 h [30]: 9710 ng·h/mL

CC(C)(O)c1coc(S(=O)(=O)NC(=O)Nc2c(-c3ccc(N4CCOCC4)cc3)ccc3c2CCC3)c1
IC50 [3]: > 1000 nM

CC(C)(O)c1coc(S(=O)(=O)NC(=O)Nc2c3c(cc(Br)c2OC2CCCCC2)CCC3)c1
IC50 [3]: > 1000 nM

CC(C)(O)c1coc(S(=O)(=O)NC(=O)Nc2cccc3c2CCC3)c1
IC50 [3]: > 1000 nM

C=C(C)c1csc(SCC(=O)Nc2c(-c3cccc(Cl)c3Cl)ccc3c2CCC3)c1
IC50 [3]: > 1000 nM

CC(C)(O)c1coc(S(=O)(=O)NC(=O)NC2c3ccccc3-c3ccccc32)c1
IC50 [3]: > 1000 nM

CC(C)(O)c1coc(S(=O)(=O)NC(=O)Nn2ccc3cccnc32)c1
IC50 [3]: > 1000 nM

COC(=O)c1csc(CNC(=O)Nc2c(-c3cccc(Cl)c3Cl)ccc3c2CCC3)c1
IC50 [3]: > 1000 nM

CC(=O)c1csc(NC(=O)Nc2c(-c3cccc(Cl)c3Cl)ccc3c2CCC3)c1
IC50 [3]: > 1000 nM

CC(C)(O)c1coc(S(=O)(=O)NC(=O)Nc2c(-c3cccc(Cl)c3Cl)ccc3c2CCC3)c1
Drug metabolism [1]: metabolite_detected | Activity [2]: Non-toxic
